Assays:
[1] = test system: carrageenan paw edema (acute inflammatory response) in Sprague-Dawley rats; assay: rat carrageenan paw edema assay; assay type: in vivo, rat (Sprague-Dawley); settings: for % Inhibition (peroral) of paw edema: 1 hour before carrageenan, 3 hours
Procedure: The compounds of the invention are further tested in the rat carrageenan paw edema assay to determine their ability to inhibit the acute inflammatory response. This assay is carried out as follows: 140-180 gm mal Sprague-Dawley rats, in groups of 6 animals are injected subcutaneously in the right paw with 0.1 ml of 1% carrageenan at zero time. Mercury plethysmographic readings (ml) of the paw are made at zero time and 3 hours later. Test compounds are suspended or dissolved in 0.5% methycellulose and given perorally 1 hour prior to carrageenan administration. The increase in paw volume (edema in ml.) produced by the carrageenan is measured. […] Unpaired Student's t-test is used to determine statistical significance.

[2] = test system: adjuvant-induced polyarthritis in Sprague-Dawley rats; assay: adjuvant arthritis assay; assay type: in vivo, rat (Sprague-Dawley); settings: oral dose 30 mg/kg
[3] = test system: LTB4 synthesis by rat polymorphonuclear leukocytes (lipoxygenase); assay: inhibition of LTB4 synthesis by rat glycogen-elicited polymorphonuclear leukocytes (PMN); assay type: cell-based, rat (female Wistar)
Procedure: This is especially true with respect to 5,12-diHETE, which is also denoted as LTB4 [See Ford-Hitchinson, J. Roy. Soc. Med., 74, 831 (1981)]. The assay of this Example measures the ability of the compounds of the invention to inhibit the synthesis of LTB4 by rat glycogenelicited polymorphonuclear leukocytes (PMN).
The assay is carried out as follows:
Rat polymorphonuclear leukocytes (PMNs) are obtained from female Wistar rats (150-200 g) which receive an injection of 6% glycogen (10 ml i.p.). Rats are sacrificed 18-24 hours post injection by CO2 asphyxiation and the elicited cells are harvested by peritoneal lavage using physiological saline (0.9% NaCl). The exudate is centrifuged at 400 x g for 10 minutes. The supernatant fluid is discarded and the cell pellet is resuspended to a concentration of 2.0×10^7 cells/ml in HBSS containing Ca^++ and Mg^++ and 10 μM L-cysteine.
To 1 ml aliquots of cell suspension, test drugs or vehicle are added, then preincubated at 37° C. for 10 minutes. […] Supernatants are then analyzed by HPLC analysis on a 15 cm×4.6 mm ID Supelcosil LC-18 (Supelco)(3M) column, using a two solvent system at a flow rate of 1.4 ml total flow as follows: […]
Injections: 150 μl of each supernatant is injected directly onto column and ^3 H arachidonic acid metabolites are monitored using an on-line radioactivity detector (Ramona, IN/US, Fairfield, NJ). […]

## CC(=NNC(=N)N)c1cccc(OCc2ccc3ccccc3c2)c1 [Example 1, 2-[1-[3-(2-Naphthalenylmethoxy)phenyl]ethylidene]-hydrazinecarboximidamide,0.1 hydrate]
[1]; at 50 mg/kg peroral
  % Inhibition (peroral) of paw edema: 42%
[2]; day 4
  % Change of Right Paw Edema at Day 4: 50%
[2]; day 16
  % Change of Left Paw Edema at Day 16: 31%

## CC(=NNC(=N)N)c1cccc(OCc2ccc3ccccc3n2)c1 [Example 2, 2-[1-[3-(2-Quinolinylmethoxy)phenyl]ethylidene]hydrazinecarboximidamide]
[1]; at 100 mg/kg peroral
  % Inhibition (peroral) of paw edema: 43%
[3]
  >50% Inhibitory at 50 μm (LTB4 synthesis): + (those compounds having an inhibition of >50%)

## COc1ccc2c(c1)c(CC(=O)O)c(C)n2C(=O)c1ccc(Cl)cc1 [Indomethacin, reference compound]
[1]; Rattus norvegicus, po, 3 h, read-out: Oral ED50 (95% C.L.) mg/kg
  ED50: 3.7 mg/kg

— patent US4889935A, “Aminoguanidine derivatives” (American Home Products Corporation, priority 1989, dated 1989)
